US12552772B2, “2-pyrazole anilines and related analogs for inhibiting YAP/TAZ-TEAD” (KATHOLIEKE UNIVERSITEIT LEUVEN, priority 2021, dated 2026)

test system: YAP/TAZ-TEAD transcription; experiment: Reporter gene assay for measuring the inhibition of YAP/TAZ-TEAD transcription (TEAD-responsive element luciferase reporter in Hek293T cells); format: cell-based; settings: Homo sapiens, HEK-293T, 24 hours incubation
How it was run: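 Hek293T cells transiently transfected with a TEAD-responsive element luciferase reporter were plated onto compounds and incubated 24 h at 37 °C/5% CO2. SteadyLite luminescence gave percent inhibition, normalised to vehicle (0%) and positive control inhibitor (100%); EC50 derived.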

Row | EC50 | SMILES
1 | < 1000 nM | C=CC(=O)NCc1ccc(-c2ccc(C(F)(F)F)cn2)cc1-c1ccn(C)n1 [compound 147, N-(2-(1-methyl-1H-pyrazol-3-yl)-4-(5-(trifluoromethyl)pyridin-2-yl)benzyl)acrylamide]
2 | < 1000 nM | C=CC(=O)NCc1ccc(-c2ccc(F)cc2)cc1-c1ccn(C(C)C)n1 [compound 150, N-((4′-fluoro-3-(1-isopropyl-1H-pyrazol-3-yl)-[1,1′-biphenyl]-4-yl)methyl)acrylamide]
3 | < 1000 nM | C=CC(=O)NCc1ccc(-c2ccc(F)cc2)cc1-c1ccn(CC(C)C)n1 [compound 152, N-((4′-fluoro-3-(1-isobutyl-1H-pyrazol-3-yl)-[1,1′-biphenyl]-4-yl)methyl)acrylamide]
4 | < 1000 nM | C=CC(=O)NCc1ccc(-c2ccc(F)cc2)cc1-c1ccn(C2COC2)n1 [compound 154, N-((4′-fluoro-3-(1-(oxetan-3-yl)-1H-pyrazol-3-yl)-[1,1′-biphenyl]-4-yl)methyl)acrylamide]
5 | < 1000 nM | C=CC(=O)NCc1ccc(-c2ccc(Cl)cc2)cc1-c1ccn(C2CC2)n1 [compound 158, N-((4′-chloro-3-(1-cyclopropyl-1H-pyrazol-3-yl)-[1,1′-biphenyl]-4-yl)methyl)acrylamide]
6 | < 1000 nM | C=CC(=O)NCc1ccc(-c2ccc(C(F)(F)F)cc2)cc1-c1cnn(C2CC2)c1 [compound 168, N-((3-(1-cyclopropyl-1H-pyrazol-4-yl)-4′-(trifluoromethyl)-[1,1′-biphenyl]-4-yl)methyl)acrylamide]
7 | < 1000 nM | C=CC(=O)NCc1ccc(-c2ccc(F)cc2)cc1-c1ccn(C2(C)CC2)n1 [compound 175, N-((4′-fluoro-3-(1-(1-methylcyclopropyl)-1H-pyrazol-3-yl)-[1,1′-biphenyl]-4-yl)methyl)acrylamide]
8 | 1000 to 20000 nM | C=CC(=O)NCc1ccc(-c2ccc(F)cc2)cc1C1CCN(C)C1 (centres unmarked) [compound 183, N-((4′-fluoro-3-(1-methylpyrrolidin-3-yl)-[1,1′-biphenyl]-4-yl)methyl)acrylamide]
9 | < 1000 nM | C=CC(=O)NCc1ccc(-c2ccc(F)cc2)cc1-c1cnn(C(F)F)n1 [compound 186, N-((3-(2-(difluoromethyl)-2H-1,2,3-triazol-4-yl)-4′-fluoro-[1,1′-biphenyl]-4-yl)methyl)acrylamide]
10 | 1000 to 20000 nM | C=CC(=O)NCc1ccc(-c2ccc(F)cc2)cc1-c1nnnn1C [compound 189, N-((4′-fluoro-3-(1-methyl-1H-tetrazol-5-yl)-[1,1′-biphenyl]-4-yl)methyl)acrylamide]
11 | 1000 to 20000 nM | C=CC(=O)NCc1ccc(-c2ccc(F)cc2)nc1-c1ccnn1C1CC1 [compound 197, N-((2-(1-cyclopropyl-1H-pyrazol-5-yl)-6-(4-fluorophenyl)pyridin-3-yl)methyl)acrylamide]
12 | < 1000 nM | C=CC(=O)NCc1ncc(-c2ccc(F)cc2)cc1-c1nnn(C(F)F)n1 [compound 204, N-((3-(2-(difluoromethyl)-2H-tetrazol-5-yl)-5-(4-fluorophenyl)pyridin-2-yl)methyl)acrylamide]
13 | > 20000 nM | CN(C)C/C=C/C(=O)NCc1cnc(-c2ccc(F)cc2)cc1-c1ccn(C(F)F)n1 [compound 208, (E)-N-((4-(1-(difluoromethyl)-1H-pyrazol-3-yl)-6-(4-fluorophenyl)pyridin-3-yl)methyl)-4-(dimethylamino)but-2-enamide]
14 | < 1000 nM | C=CC(=O)NCc1cnc(-c2ccc(C(F)(F)F)cc2)cc1-c1ccn(C(F)F)n1 [compound 209, N-((4-(1-(difluoromethyl)-1H-pyrazol-3-yl)-6-(4-(trifluoromethyl)phenyl)pyridin-3-yl)methyl)acrylamide]

Continued, compound first:

Row | SMILES | EC50
15 | CN(C)S(=O)(=O)CCNc1ccc(-c2ccc(F)cc2)nc1-c1ccn(C(F)F)n1 [compound 133, 2-((2-(1-(difluoromethyl)-1H-pyrazol-3-yl)-6-(4-fluorophenyl)pyridin-3-yl)amino)-N,N-dimethylethane-1-sulfonamide] | < 1000 nM
16 | CNS(=O)(=O)CCNc1ccc(-c2ccc(C(F)(F)F)cc2)nc1-c1ccn(C(F)F)n1 [compound 134, 2-((2-(1-(difluoromethyl)-1H-pyrazol-3-yl)-6-(4-(trifluoromethyl)phenyl)pyridin-3-yl)amino)-N-methylethane-1-sulfonamide] | < 1000 nM
17 | C=CC(=O)NCc1ccc(-c2ccccc2)cc1-c1ccn(Cc2cccnc2)n1 [compound 136, N-((3-(1-(pyridin-3-ylmethyl)-1H-pyrazol-3-yl)-[1,1′-biphenyl]-4-yl)methyl)acrylamide] | < 1000 nM
18 | CCC(=O)NCc1cc(-c2ccccc2)cc(-c2ccn(C)n2)c1 [compound 138, N-((5-(1-methyl-1H-pyrazol-3-yl)-[1,1′-biphenyl]-3-yl)methyl)propionamide] | 1000 to 20000 nM
19 | C=CC(=O)NCc1cc(-c2ccccc2)cc(-c2ccn(Cc3cccnc3)n2)c1 [compound 139, N-((5-(1-(pyridin-3-ylmethyl)-1H-pyrazol-3-yl)-[1,1′-biphenyl]-3-yl)methyl)acrylamide] | < 1000 nM
20 | C=CC(=O)NCc1ccc(-c2ccc(C(F)(F)F)cc2F)cc1-c1ccn(C)n1 [compound 146, N-((2′-fluoro-3-(1-methyl-1H-pyrazol-3-yl)-4′-(trifluoromethyl)-[1,1′-biphenyl]-4-yl)methyl)acrylamide] | < 1000 nM
21 | C=CC(=O)NCc1ccc(-c2ccc(C(F)(F)F)nc2)cc1-c1ccn(C)n1 [compound 148, N-(2-(1-methyl-1H-pyrazol-3-yl)-4-(6-(trifluoromethyl)pyridin-3-yl)benzyl)acrylamide] | < 1000 nM
22 | C=CC(=O)NCc1ccc(-c2ccc(F)cc2)cc1-c1ccn(CCO)n1 [compound 151, N-((4′-fluoro-3-(1-(2-hydroxyethyl)-1H-pyrazol-3-yl)-[1,1′-biphenyl]-4-yl)methyl)acrylamide] | < 1000 nM
23 | C=CC(=O)NCc1ccc(-c2ccc(F)cc2)cc1-c1ccn(CCOC(F)(F)F)n1 [compound 155, N-((4′-fluoro-3-(1-(2-(trifluoromethoxy)ethyl)-1H-pyrazol-3-yl)-[1,1′-biphenyl]-4-yl)methyl)acrylamide] | 1000 to 20000 nM
24 | C=CC(=O)NCc1ccc(-c2ccc(C(F)(F)F)cc2)cc1-c1ccn(CCOC)n1 [compound 156, N-((3-(1-(2-methoxyethyl)-1H-pyrazol-3-yl)-4′-(trifluoromethyl)-[1,1′-biphenyl]-4-yl)methyl)acrylamide] | < 1000 nM
25 | C=CC(=O)NCc1ccc(-c2ccc(F)cc2)cc1-c1ccn(CC2COC2)n1 [compound 159, N-((4′-fluoro-3-(1-(oxetan-3-ylmethyl)-1H-pyrazol-3-yl)-[1,1′-biphenyl]-4-yl)methyl)acrylamide] | < 1000 nM
26 | C=CC(=O)NCc1ccc(-c2ccc(F)cc2)cc1-c1ccn(CC(F)(F)F)n1 [compound 160, N-((4′-fluoro-3-(1-(2,2,2-trifluoroethyl)-1H-pyrazol-3-yl)-[1,1′-biphenyl]-4-yl)methyl)acrylamide] | < 1000 nM
27 | C=CC(=O)NCc1ccc(-c2ccc(F)cc2)cc1-c1ccnn1C [compound 163, N-((4′-fluoro-3-(1-methyl-1H-pyrazol-5-yl)-[1,1′-biphenyl]-4-yl)methyl)acrylamide] | > 20000 nM
28 | C=CC(=O)NCc1ccc(-c2ccc(F)cc2)cc1-c1cccnc1 [compound 164, N-((4′-fluoro-3-(pyridin-3-yl)-[1,1′-biphenyl]-4-yl)methyl)acrylamide] | < 1000 nM
29 | C=CC(=O)NCc1ccc(-c2ccc(F)cc2)cc1-c1ccnn1C(F)F [compound 171, N-((3-(1-(difluoromethyl)-1H-pyrazol-5-yl)-4′-fluoro-[1,1′-biphenyl]-4-yl)methyl)acrylamide] | 1000 to 20000 nM
30 | C=CC(=O)NCc1ccc(-c2ccc(C(F)(F)F)cc2)cc1-c1cnn(C(F)F)c1 [compound 173, N-((3-(1-(difluoromethyl)-1H-pyrazol-4-yl)-4′-(trifluoromethyl)-[1,1′-biphenyl]-4-yl)methyl)acrylamide] | < 1000 nM
31 | C=CC(=O)NCc1ccc([C@H]2CC[C@H](C(F)(F)F)CC2)cc1-c1ccn(C)n1 [compound 178, trans-N-(2-(1-methyl-1H-pyrazol-3-yl)-4-(4-(trifluoromethyl)cyclohexyl)benzyl)acrylamide] | < 1000 nM
32 | C=CC(=O)NCc1ccc(N2CCC(C(F)(F)F)CC2)cc1-c1ccn(C)n1 [compound 181, N-(2-(1-methyl-1H-pyrazol-3-yl)-4-(4-(trifluoromethyl)piperidin-1-yl)benzyl)acrylamide] | < 1000 nM
33 | C=CC(=O)NCc1ccc(-c2ccc(F)cc2)cc1-n1ccnn1 [compound 191, N-((4′-fluoro-3-(1H-1,2,3-triazol-1-yl)-[1,1′-biphenyl]-4-yl)methyl)acrylamide] | < 1000 nM
34 | C=CC(=O)NCc1c(F)cc(-c2ccc(C(F)(F)F)cc2)cc1-c1ccn(C)n1 [compound 192, N-((3-fluoro-5-(1-methyl-1H-pyrazol-3-yl)-4′-(trifluoromethyl)-[1,1′-biphenyl]-4-yl)methyl)acrylamide] | < 1000 nM
35 | C=CC(=O)NCc1ccc(-c2ccc(F)cc2)nc1-c1ccn(CC2CC2)n1 [compound 195, N-((2-(1-(cyclopropylmethyl)-1H-pyrazol-3-yl)-6-(4-fluorophenyl)pyridin-3-yl)methyl)acrylamide] | < 1000 nM
36 | C=CC(=O)NCc1ccc(-c2ccc(F)cc2)nc1-c1ccn(C2CC2)n1 [compound 196, N-((2-(1-cyclopropyl-1H-pyrazol-3-yl)-6-(4-fluorophenyl)pyridin-3-yl)methyl)acrylamide] | < 1000 nM
37 | C=CC(=O)NCc1ccc(-c2ccc(F)cc2)nc1-c1nnn(C(F)F)n1 [compound 199, N-((2-(2-(difluoromethyl)-2H-tetrazol-5-yl)-6-(4-fluorophenyl)pyridin-3-yl)methyl)acrylamide] | < 1000 nM
38 | C=CC(=O)NCc1ccc(-c2ccc(F)cc2)nc1-c1nn[nH]n1 [compound 200, N-((6-(4-fluorophenyl)-2-(2H-tetrazol-5-yl)pyridin-3-yl)methyl)acrylamide] | > 20000 nM
